Where “and” joins values, the source holds several entries; their conditions need not be identical. Equal entries are not always repeated. Marks after values point to notes of the source that are not given here. Values belong to the compound of their own block, whether it stands above or below them. Where no end group is shown, it is not given here.
Key:
[1] = system: xylene-induced ear swelling in Kunming mice; assay: Xylene-induced ear swelling in mice; assay type: in vivo, mouse; details: 200 mg/kg (positive control) once daily for 5 days
Procedure: Kunming mice were used. The saline group was used as the blank control group, the aspirin group (200 mg/kg) as the positive control group, and the mPEG-HM-1 administration group as the experimental group. Mice were administered once daily for 5 consecutive days. The blank control group was given an equal volume of physiological saline. One hour after the last administration, 0.05 mL of xylene was applied to both sides of the right ear of the mice to cause inflammation, and the left ear was not coated as normal ears. After 2 h, the mice were sacrificed by dislocation, and the ears were cut along the auricle. Ear pieces were taken with a puncher, weighed, and the swelling degree and swelling rate were calculated. Swelling degree=right ear piece weight-left ear piece weight, swelling rate=(swelling degree/left ear piece weight)×100%. Statistical t-test was performed on the test results, *P<0.05 was a significant difference, and **P<0.01 was a very significant difference. See Table 31 to Table 34 for the results.

[2] = system: human retinal vascular endothelial cells (HRCEC); assay: MTT proliferation of human retinal vascular endothelial cells; assay type: cell-based; details: 10 μg/mL (positive control), 48 h
Procedure: The activity of the angiogenesis inhibitor polypeptide to inhibit proliferation of human retinal vascular endothelial cells was examined by MTT assay. HRCEC cells were cultured in a 37° C., 5% CO2 incubator to a density of 90% or more, and collected by trypsinization. The cells were resuspended in the culture medium and counted under a microscope to adjust the cell concentration to 3.0×10^4 cells/mL. The cell suspension was inoculated into a 96-well plate at 100 μL per well and cultured overnight at 37° C. in a 5% CO2 incubator. After the cells were completely adhered, the angiogenesis inhibitor polypeptide was added as the administration group, and Avastin was used as the positive control group, and the culture media without any drug was used as a blank control group, and the culture media were diluted to each predetermined concentration. Each dilution was separately added to a 96-well plate at 100 μL per well and incubated for 48 h at 37° C. in a 5% CO2 incubator. 20 μL of 5 mg/mL MTT was added to each well of a 96-well plate and incubation was continued for 4 h. The medium was aspirated and dissolved in 100 μL of DMSO per well. […] The formula is as follows: PI (%)=1−administration group/negative group
The test was repeated 3 times independently. The results obtained by the test were expressed as mean±SD, and a statistical T test was performed. *P<0.05 was a significant difference, and **P<0.01 was a very significant difference.

[3] = system: Human Umbilical Vein Endothelial Cells (HUVEC); assay: Transwell migration of HUVEC; assay type: cell-based; details: 10 μg/mL, 24 h
Procedure: 10 mg/mL Matrigel was diluted 1:2 with HUVEC-specific medium, spread on a transwell chamber membrane, and air-dried at room temperature. HUVEC cells cultured in logarithmic growth phase were digested with trypsin digest, collected, washed twice with PBS, and resuspended in blank HUVECs-specific medium. The cells were counted under a microscope, and the cell concentration was adjusted to 1×10^5/mL. The test solutions of each group were prepared and diluted to 100 μL with a blank HUVECs-specific medium. The cells were seeded into a transwell chamber at 100 μL per well, and each set of test solution was added to the chamber. The cell culture was stimulated by adding 0.6 mL of endothelial cell culture medium containing 5% fetal bovine serum and 1% ECGS into a 24-well plate, and cultured at 5% CO2 for 24 hour at 37° c. Discard the culture medium in the well, fix it with 90% alcohol at room temperature for 30 minutes, 0.1% crystal violet for 10 min at room temperature, rinse with water, gently wipe off the unsprayed cells in the upper layer with a cotton swab, observe under microscope and select four fields to take pictures. Calculate migration inhibition (MI) according to the formula: […]
Ntest was the number of cell migration in the test group, and Ncontrol was the number of cell migration in the blank control group.
The test was repeated 3 times independently. The results obtained from the test were calculated as mean±SD, and a statistical T test was performed. *P<0.05 was a significant difference, and **P<0.01 was a very significant difference.

[4] = Half-life / pharmacokinetics of mPEG-HM-1 and HM-1; details: in vivo

Compound: CC(=O)Oc1ccccc1C(=O)O [aspirin, reference compound]
Swelling ([1]; 2 h after xylene): 3.07 ± 0.31** mg and 3.02 ± 0.41** mg and 3.01 ± 0.53** mg and 2.98 ± 0.53** mg
Inhibition rate ([1]; ear swelling vs control): 50.02% and 51.11% and 50.87% and 50.93%

Compound: Avastin: positive control in HUVEC migration and HRCEC proliferation tests [reference compound]
Inhibition rate ([2]; HRCEC proliferation): 65.83%** and 64.93%** and 65.71%** and 66.07%**
A570 nm-A630 nm ([2]; HRCEC, MTT): 0.4479 ± 0.08104 and 0.4636 ± 0.08322 and 0.4494 ± 0.08132 and 0.4518 ± 0.08013
cell migration number (Mean ± SD) [3]: 564.53 ± 60.36 and 560.64 ± 62.06 and 532.80 ± 60.06 and 572.06 ± 48.92
inhibition rate of HUVEC migration [3]: 46.78%* and 45.92%* and 48.22%* and 47.62%*

AUC(0-inf) [4]: 32800 ± 8230 ng·h/mL
MRT inf [4]: 4.02 ± 0.78 min
Compound: RGADRAGGGGRGD [HM-1, Arg-Gly-Ala-Asp-Arg-Ala-Gly-Gly-Gly-Gly-Arg-Gly-Asp]

From patent US10869931B2, “Polyethylene glycol-modified angiogenesis inhibitor HM-1 and application thereof” (NANJING ANJI BIOLOGICAL TECHNOLOGY CO.,LTD, priority 2016, dated 2020)
